Read-outs that look alike come from different tables or passages of the source.
How the values were obtained:
HIV1 strain NL4-3 = type: cell-based; settings: normalized mean of HIV1 replication readout
HCV replicon = type: cell-based; settings: normalized mean of HCV replicon readout
[1] = test system: F. novicida (strain U112); type: cell-based
influenza A H1N1 virus = settings: 48 hr post-treatment, A549
EBV = settings: normalized mean of EBV replication readout

Substance | HIV1 Norm MEAN (HIV1 strain NL4-3; peptide screen) | HCV Norm MEAN (HCV replicon; peptide screen) | Francisella novicida Norm AUC [1] | Neuraminidase activity normalized to vehicle (influenza A H1N1 virus; 200 µM peptide) | Neuraminidase activity normalized to vehicle (influenza A H1N1 virus; 0,823 µM peptide) | Neuraminidase activity normalized to vehicle (influenza A H1N1 virus; 22,2 µM peptide) | Neuraminidase activity normalized to vehicle (influenza A H1N1 virus; 2,4691 µM peptide) | Neuraminidase activity normalized to vehicle (influenza A H1N1 virus; 7,4074 µM peptide) | Neuraminidase activity normalized to vehicle (influenza A H1N1 virus; 66,6667 µM peptide) | EBV Norm MEAN (EBV; peptide screen) | HIV1 Norm MEAN (HIV1 strain NL4-3) | HCV Norm MEAN (HCV replicon) | EBV Norm MEAN (EBV) | inhibition of PI incorporation in F. novicida infected BMDMs (in words) [1]
DLYCYEQLNDSSEEE [CPEP55] | 0.5362 | 0.7703 | 1.147 | 1,025 | 0,8699 | 0,9333 | 0,9062 | 0,9392 | 1,0033 | 0.3423 |  |  |  | 
PTAPP [CPEP49] |  |  | 1.057 | 0,7922 | 0,6686 | 0,8389 | 0,6943 | 0,7716 | 0,9061 |  | 1.171 | 0.1885 | 0.9513 | 
PVHAGPIAPGQMREP [CPEP81] | 0.8771 | 0.6759 | 1.038 | 0,9395 | 0,9268 | 1,0319 | 1,0385 | 1,0221 | 1,026 | 0.3978 |  |  |  | 
GGLEPLSEKHFRETEV [CPEP112] | 0.2121 | 0.3447 | 1.082 | 1,0677 | 1,0673 | 1,1545 | 1,0388 | 1,1047 | 1,0264 | 0.8103 |  |  |  | 
PLDLS [CPEP54] |  |  | 0.4272 | 1,1329 | 1,0199 | 0,844 | 1,1627 | 0,6425 | 1,0456 |  | 1.112 | 0.1712 | 1.129 | 
ISNLPYTIKYKIFEQQ [CPEP120] | 3.21 | 0.3919 | 0.5785 | 1,0456 | 1,0562 | 1,193 | 0,9901 | 1,0754 | 1,0268 | 1.211 |  |  |  | 
EPLDLPPIIQ [CPEP45] |  |  | 1.0611 | 0,7336 | 0,9966 | 0,8381 | 0,9443 | 0,9188 | 0,7574 |  | 0.3392 | 1.078 | 0.6832 | 
DILDLWIYHTQGYFPDWQ [CPEP114] | 4.359 | 0.2469 | 1.151 | 0,4016 | 1,1783 | 1,017 | 1,0928 | 1,195 | 0,5539 | 1.296 |  |  |  | 
GRPPLPPKQK [CPEP41] |  |  | 0.9976 | 0,8561 | 1,0727 | 0,912 | 0,9209 | 0,9892 | 0,8347 |  | 0.6258 | 0.9259 | 0.7591 | 
LTEDRWNKPQKTKGH [CPEP141] | 0.4657 | 0.7797 | 1.234 | 0,9005 | 0,8505 | 0,9378 | 0,92 | 0,9289 | 0,9241 | 0.7716 |  |  |  | 
RTYGTWEDLFCDESL [CPEP128] | 0.383 | 0.6752 | 0.8745 | 0,6933 | 0,9138 | 1,0305 | 1,0131 | 0,9772 | 1,0247 | 1.318 |  |  |  | 
HFEPPTLHELYDLDVTAP [CPEP115] | 1.21 | 0.5064 | 1.086 | 1,0337 | 1,141 | 1,1784 | 1,0495 | 1,1676 | 1,1762 | 0.5144 |  |  |  | 
PPIPPPR [CPEP151] |  |  | 1.288 | 1,016 | 0,9906 | 0,9273 | 0,9123 | 0,9111 | 0,9435 |  | 0.669 | 0.3254 | 1.55 | 
TGGER [CPEP30] |  |  | 0.8411 | 0,9647 | 0,957 | 0,923 | 0,8714 | 0,8974 | 0,9486 |  | 1.255 | 0.2042 | 0.8583 | 
WRHRAR [CPEP113] |  |  | 0.358 | 0,9723 | 0,965 | 0,979 | 0,9338 | 0,9116 | 1,0465 |  | 0.4362 | 0.1192 | 1.761 | most
CPEP99: peptide of the viral peptide library; sequence page not shown (SWESHKSGGETRL) | 0.6504 | 0.3379 | 1.1 | 1,0243 | 0,9063 | 1,004 | 0,994 | 0,9109 | 1,1024 | 0.7952 |  |  |  | 

Source: paper PMC10835127, “Viruses traverse the human proteome through peptide interfaces that can be biomimetically leveraged for drug discovery” (Proceedings of the National Academy of Sciences of the …, 2024)
